“Also recorded” adds a separate entry of the source.
How the values were obtained:
PAK1 = PAK1 (Homo sapiens, UniProt Q13153); assay: Kinase inhibition screening; type: biochemical; settings: 10-dose, starting at 100 μM, 1 μM ATP
Procedure: (§1) To determine kinase activity of DAL, various kinases (AKT1, AKT2, AKT3, PKA, PKC alpha, PKC delta, PAK1, EPHB2, EPHB4, p38 alpha, PI3K-alpha, PI3K-beta, PI3K-gamma, PI3K-delta) were screened in a 10-dose IC50 mode with threefold serial dilutions starting at 100 μM. Staurosporine was used as a control starting at 10 μM and the reactions were carried out at 1 μM ATP.
(§2) Without wishing to be bound by theory, DAL brings about its antivascular effects by destabilizing cell adhesion through the actin cytoskeleton. It was next sought to identify which specific adhesion pathway it targets. Mechanical attachment at cell-cell adherens and tight junctions is regulated by dynamic changes in the actin cytoskeleton. Adherens junctions are composed of E-cadherin/β-catenin complexes and are connected to the actin cytoskeleton via sa-catenin (25-26), while tight junctions consist of transmembrane claudins and occludin and are associated with the actin cytoskeleton via ZO proteins (27-28). Therefore, potential targets of DAL in signaling pathways involved in actin remodeling were evaluated. […] Then, it was sought to determine whether Rho-GTPase family members are targets for DAL due to the disruption of cell adhesion and actin network remodeling along with inhibited motility. Rho-GTPases (e.g., Rac1) plays an important role in actin cytoskeletal organization and is involved in the coordination of cell adhesion (29). Furthermore, Rac1 is responsible for stabilizing endothelial cell junctions by opposing actin remodeling by Rho (30). In order to migrate, cancer cells employ dynamic remodeling of the actin cytoskeleton, form protrusive structures and generate forces necessary to produce cell translocation in the process regulated by Rho-GTPase Rac1. To assess whether DAL can modulate Rac1, RhoA, and Cdc42 activities, affinity purification assays were employed to monitor RhoA and Cdc42/Rac1 activity. The Rho-Binding Domain (RBD) of the Rho effector protein rhotekin and the p21 Binding Domain (PBD) of the Cdc42/Rac effector protein p21 activated kinase 1 (PAK) were applied to pull down active forms of each protein.

PKC delta = PKC delta (Homo sapiens, UniProt Q05655); assay: Kinase inhibition screening; type: biochemical; settings: 10-dose, starting at 100 μM, 1 μM ATP
Procedure: as §1, §2

AKT3 = AKT3 (Homo sapiens, UniProt Q9Y243); assay: Kinase inhibition screening; type: biochemical; settings: 10-dose, starting at 100 μM, 1 μM ATP
Procedure: as §1, §2

PI3K-beta = PI3K-beta (Homo sapiens, UniProt P42338); assay: Kinase inhibition screening; type: biochemical; settings: 10-dose, starting at 100 μM, 1 μM ATP
Procedure: as §1, §2

AKT2 = AKT2 (Homo sapiens, UniProt P31751); assay: Kinase inhibition screening; type: biochemical; settings: 10-dose, starting at 100 μM, 1 μM ATP
Procedure: as §1, §2

PI3K-delta = PI3K-delta (Homo sapiens, UniProt O00329); assay: Kinase inhibition screening; type: biochemical; settings: 10-dose, starting at 100 μM, 1 μM ATP
Procedure: as §1, §2

PI3K-alpha = PI3K-alpha (Homo sapiens, UniProt P42336); assay: Kinase inhibition screening; type: biochemical; settings: 10-dose, starting at 100 μM, 1 μM ATP
Procedure: as §1, §2

EPHB2 = EPHB2 (Homo sapiens, UniProt P29323); assay: Kinase inhibition screening; type: biochemical; settings: 10-dose, starting at 100 μM, 1 μM ATP
Procedure: as §1, §2

PKA = PKA (Homo sapiens, UniProt P17612); assay: Kinase inhibition screening; type: biochemical; settings: 10-dose, starting at 100 μM, 1 μM ATP
Procedure: as §1, §2

PKC alpha = PKC alpha (Homo sapiens, UniProt P17252); assay: Kinase inhibition screening; type: biochemical; settings: 10-dose, starting at 100 μM, 1 μM ATP
Procedure: as §1, §2

PI3K-gamma = PI3K-gamma (Homo sapiens, UniProt P48736); assay: Kinase inhibition screening; type: biochemical; settings: 10-dose, starting at 100 μM, 1 μM ATP
Procedure: as §1, §2

AKT1 = AKT1 (Homo sapiens, UniProt P31749); assay: Kinase inhibition screening; type: biochemical; settings: 10-dose, starting at 100 μM, 1 μM ATP
Procedure: as §1, §2

p38 alpha = p38 alpha (Homo sapiens, UniProt Q16539); assay: Kinase inhibition screening; type: biochemical; settings: 10-dose, starting at 100 μM, 1 μM ATP
Procedure: as §1, §2

EPHB4 = EPHB4 (Homo sapiens, UniProt P54760); assay: Kinase inhibition screening; type: biochemical; settings: 10-dose, starting at 100 μM, 1 μM ATP
Procedure: as §1, §2

recombinant purified IDO = recombinant purified IDO (Homo sapiens, UniProt P14902); settings: cited (He et al., 2008); cited from earlier work
[1] = test system: orthotopic 4T1 mammary tumors; assay: Vascular parameters in tumors by intravital multiphoton microscopy; type: in vivo, female SCID mice; settings: 37.5 mg/kg daily i.p.
Procedure: Female SCID mice bearing orthotopic GFP-labeled 3 mm 4T1 mammary tumors were treated with five daily i.p. injections (day 0-day 4) of 37.5 mg/kg DAL or saline. Implanted mammary fat pad windows (35) were surgically implanted to facilitate intravital imaging through multiphoton microscopy with a custom-built multiphoton microscope with a 20×0.95NA objective (Olympus), and mice were imaged by fluorescent angiography following retro-orbital injection of 60 uL of 10 mg/mL TAMRA-dextran (2MDa molecular mass). Images were collected on day 0, day 2, and day 4, with the first images collected immediately before the first treatment. The 2×2 grids were imaged in the sample plane (630-μm) field of view at each position) tissue from 0-200 μm depth. To measure vascular parameters in the mice over the course of treatment, a custom 3D vascular tracing and analysis software package based on MATLAB (The Mathworks) was applied to the images.
To study these effects quantitatively, fluorescent angiographies were conducted in female SCID mice bearing orthotopic 4T1 mammary tumors in mammary fat pad windows via intravital multiphoton microscopy (FIG. 3A) (22-24). These mice were treated with 37.5 mg/kg DAL or saline daily for 5 days by i.p. injection. It was determined that DAL treatment decreases tumor vascular volume fractions—a measure of vascular density—compared with saline treatment (FIG. 3B, p<0.002, day 4).

[2] = test system: vasculature in adult fish; assay: Effect on vasculature in adult zebrafish; type: in vivo; settings: mature vasculature
HUVEC = assay: Scratch wound-healing motility assay; type: cell-based, human; settings: HUVEC monolayer, DAL 5 μM, 24 hours after wounding
Procedure: For F-actin visualization, HUVECs were plated and treated with saline or DAL (10 μM) for three hours. After fixing and permeabilizing these cultured cells, the cells were subsequently stained with phalloidin. […] Existing cordlike structures, when exposed to 10 μM of DAL for 3 hours, were also disrupted. […] HUVEC monolayers were disrupted mechanically with a pipette tip and the migration of cells to “heal” the wound was monitored using microscopy.
To assess whether DAL affects EC functions, in vitro models of vascular network formation from HUVECs were used. After overnight cultivation in matrigel, HUVECs spontaneously assemble into cord-like structures that resemble vascular networks. […] Since DAL affects actin cytoskeleton assembly, the effect of DAL on cell motility was next assessed. A scratch wound assay was utilized to study HUVEC motility based on the healing rate of a wounded monolayer.

Chain of PAK1 (Q13153 whole entry): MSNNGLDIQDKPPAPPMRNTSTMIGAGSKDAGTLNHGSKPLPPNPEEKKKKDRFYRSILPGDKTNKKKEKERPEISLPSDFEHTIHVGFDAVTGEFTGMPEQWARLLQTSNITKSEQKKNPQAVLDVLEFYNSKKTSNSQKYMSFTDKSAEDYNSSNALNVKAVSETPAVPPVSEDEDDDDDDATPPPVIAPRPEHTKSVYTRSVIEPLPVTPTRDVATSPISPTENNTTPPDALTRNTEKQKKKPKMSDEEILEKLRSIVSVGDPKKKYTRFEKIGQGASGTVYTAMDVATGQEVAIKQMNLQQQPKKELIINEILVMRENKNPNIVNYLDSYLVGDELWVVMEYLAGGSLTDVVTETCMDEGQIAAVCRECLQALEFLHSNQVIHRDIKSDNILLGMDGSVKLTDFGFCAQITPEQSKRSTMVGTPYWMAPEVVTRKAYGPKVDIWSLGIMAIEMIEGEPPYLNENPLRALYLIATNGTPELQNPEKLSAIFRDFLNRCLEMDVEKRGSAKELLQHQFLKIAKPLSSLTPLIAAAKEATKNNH
Chain of AKT1 (P31749 whole entry, species assumed): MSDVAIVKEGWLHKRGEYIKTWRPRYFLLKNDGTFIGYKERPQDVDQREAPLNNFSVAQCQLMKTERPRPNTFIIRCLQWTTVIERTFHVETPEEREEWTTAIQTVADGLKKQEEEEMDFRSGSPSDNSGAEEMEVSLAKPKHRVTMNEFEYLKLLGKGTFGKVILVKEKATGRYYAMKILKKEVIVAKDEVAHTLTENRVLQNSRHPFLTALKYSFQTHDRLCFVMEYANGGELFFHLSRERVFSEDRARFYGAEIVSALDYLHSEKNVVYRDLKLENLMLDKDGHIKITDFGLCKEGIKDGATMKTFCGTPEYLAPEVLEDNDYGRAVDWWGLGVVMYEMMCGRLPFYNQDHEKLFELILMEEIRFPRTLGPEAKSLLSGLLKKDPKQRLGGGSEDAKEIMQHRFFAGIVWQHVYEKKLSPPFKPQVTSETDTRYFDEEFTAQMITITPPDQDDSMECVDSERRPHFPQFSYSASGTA
Chain of p38 alpha (Q16539 whole entry): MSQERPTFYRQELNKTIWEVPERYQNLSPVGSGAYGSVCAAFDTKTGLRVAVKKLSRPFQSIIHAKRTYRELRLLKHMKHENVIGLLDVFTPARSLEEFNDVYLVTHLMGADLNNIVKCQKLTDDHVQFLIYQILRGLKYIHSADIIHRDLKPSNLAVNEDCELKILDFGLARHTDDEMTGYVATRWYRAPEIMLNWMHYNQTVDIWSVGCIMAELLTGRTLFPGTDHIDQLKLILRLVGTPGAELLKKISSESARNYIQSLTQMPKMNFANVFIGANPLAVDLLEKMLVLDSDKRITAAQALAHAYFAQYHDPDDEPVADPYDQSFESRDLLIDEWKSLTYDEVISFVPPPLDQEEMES
Chain of EPHB2 (P29323 19-1055, species assumed): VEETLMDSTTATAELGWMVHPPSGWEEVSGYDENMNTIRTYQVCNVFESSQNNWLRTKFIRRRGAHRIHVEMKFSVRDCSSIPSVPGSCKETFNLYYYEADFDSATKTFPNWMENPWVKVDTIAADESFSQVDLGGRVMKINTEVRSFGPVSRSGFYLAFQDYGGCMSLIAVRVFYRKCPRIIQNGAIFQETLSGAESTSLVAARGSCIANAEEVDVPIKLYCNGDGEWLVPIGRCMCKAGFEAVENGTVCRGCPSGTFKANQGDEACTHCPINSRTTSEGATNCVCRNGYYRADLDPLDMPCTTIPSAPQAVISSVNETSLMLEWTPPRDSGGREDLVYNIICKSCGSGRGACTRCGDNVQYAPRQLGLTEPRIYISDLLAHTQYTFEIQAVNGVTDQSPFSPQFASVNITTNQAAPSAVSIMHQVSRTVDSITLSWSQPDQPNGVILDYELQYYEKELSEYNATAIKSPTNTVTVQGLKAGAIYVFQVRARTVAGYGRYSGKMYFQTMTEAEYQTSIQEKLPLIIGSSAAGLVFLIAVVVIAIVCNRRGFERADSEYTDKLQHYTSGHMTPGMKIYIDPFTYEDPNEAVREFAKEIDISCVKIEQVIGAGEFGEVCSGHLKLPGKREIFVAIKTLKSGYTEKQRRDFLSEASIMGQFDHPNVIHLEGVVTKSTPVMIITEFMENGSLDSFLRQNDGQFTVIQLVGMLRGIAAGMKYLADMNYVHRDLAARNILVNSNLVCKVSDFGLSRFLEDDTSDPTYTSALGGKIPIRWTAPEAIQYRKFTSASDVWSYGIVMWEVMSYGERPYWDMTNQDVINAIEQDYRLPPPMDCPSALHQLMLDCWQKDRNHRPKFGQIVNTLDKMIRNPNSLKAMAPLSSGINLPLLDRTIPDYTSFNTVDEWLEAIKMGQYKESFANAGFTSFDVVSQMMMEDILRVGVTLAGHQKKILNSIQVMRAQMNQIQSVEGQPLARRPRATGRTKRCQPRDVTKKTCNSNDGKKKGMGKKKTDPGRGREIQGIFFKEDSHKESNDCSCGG
Chain of AKT2 (P31751 whole entry, species assumed): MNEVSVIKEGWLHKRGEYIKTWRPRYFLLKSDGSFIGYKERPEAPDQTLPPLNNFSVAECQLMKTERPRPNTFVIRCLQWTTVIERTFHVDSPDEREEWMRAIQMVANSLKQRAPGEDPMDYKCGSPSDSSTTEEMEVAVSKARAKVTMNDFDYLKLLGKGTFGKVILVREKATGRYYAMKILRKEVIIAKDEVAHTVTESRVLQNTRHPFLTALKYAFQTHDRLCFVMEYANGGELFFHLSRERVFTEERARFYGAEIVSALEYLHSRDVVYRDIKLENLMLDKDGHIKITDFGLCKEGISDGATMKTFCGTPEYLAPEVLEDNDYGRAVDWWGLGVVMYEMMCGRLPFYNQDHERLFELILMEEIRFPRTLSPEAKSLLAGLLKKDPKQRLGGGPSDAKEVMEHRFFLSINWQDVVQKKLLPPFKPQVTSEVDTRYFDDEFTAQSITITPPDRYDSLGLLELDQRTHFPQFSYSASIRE
Chain of PI3K-beta (P42338 whole entry, species assumed): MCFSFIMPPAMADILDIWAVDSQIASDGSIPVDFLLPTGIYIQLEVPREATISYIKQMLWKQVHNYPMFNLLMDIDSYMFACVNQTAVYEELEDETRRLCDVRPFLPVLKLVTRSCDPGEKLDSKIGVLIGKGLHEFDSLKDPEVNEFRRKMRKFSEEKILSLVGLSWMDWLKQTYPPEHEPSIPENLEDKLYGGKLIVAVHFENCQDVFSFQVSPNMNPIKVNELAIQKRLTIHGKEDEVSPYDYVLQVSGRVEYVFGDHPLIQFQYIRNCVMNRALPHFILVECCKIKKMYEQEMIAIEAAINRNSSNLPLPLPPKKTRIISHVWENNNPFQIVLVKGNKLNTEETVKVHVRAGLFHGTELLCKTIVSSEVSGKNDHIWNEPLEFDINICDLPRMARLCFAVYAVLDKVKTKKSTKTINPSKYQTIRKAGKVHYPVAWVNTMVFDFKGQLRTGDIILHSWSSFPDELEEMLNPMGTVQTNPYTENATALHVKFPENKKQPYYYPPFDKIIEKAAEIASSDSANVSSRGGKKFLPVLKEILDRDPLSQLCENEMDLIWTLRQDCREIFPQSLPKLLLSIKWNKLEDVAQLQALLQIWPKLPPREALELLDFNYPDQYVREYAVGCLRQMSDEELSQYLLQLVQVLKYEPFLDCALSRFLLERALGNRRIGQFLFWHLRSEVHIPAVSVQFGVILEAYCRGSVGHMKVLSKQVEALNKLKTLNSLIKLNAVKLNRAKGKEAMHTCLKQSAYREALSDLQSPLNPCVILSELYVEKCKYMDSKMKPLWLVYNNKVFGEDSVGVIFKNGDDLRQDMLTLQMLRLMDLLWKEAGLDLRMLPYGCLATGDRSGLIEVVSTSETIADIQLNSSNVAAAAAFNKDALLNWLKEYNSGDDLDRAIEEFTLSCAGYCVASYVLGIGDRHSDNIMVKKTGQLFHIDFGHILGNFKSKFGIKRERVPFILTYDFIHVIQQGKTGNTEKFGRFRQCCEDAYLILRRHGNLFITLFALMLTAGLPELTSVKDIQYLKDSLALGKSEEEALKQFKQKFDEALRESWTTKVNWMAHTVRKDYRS
Chain of PI3K-beta (P27986 whole entry partner, species assumed): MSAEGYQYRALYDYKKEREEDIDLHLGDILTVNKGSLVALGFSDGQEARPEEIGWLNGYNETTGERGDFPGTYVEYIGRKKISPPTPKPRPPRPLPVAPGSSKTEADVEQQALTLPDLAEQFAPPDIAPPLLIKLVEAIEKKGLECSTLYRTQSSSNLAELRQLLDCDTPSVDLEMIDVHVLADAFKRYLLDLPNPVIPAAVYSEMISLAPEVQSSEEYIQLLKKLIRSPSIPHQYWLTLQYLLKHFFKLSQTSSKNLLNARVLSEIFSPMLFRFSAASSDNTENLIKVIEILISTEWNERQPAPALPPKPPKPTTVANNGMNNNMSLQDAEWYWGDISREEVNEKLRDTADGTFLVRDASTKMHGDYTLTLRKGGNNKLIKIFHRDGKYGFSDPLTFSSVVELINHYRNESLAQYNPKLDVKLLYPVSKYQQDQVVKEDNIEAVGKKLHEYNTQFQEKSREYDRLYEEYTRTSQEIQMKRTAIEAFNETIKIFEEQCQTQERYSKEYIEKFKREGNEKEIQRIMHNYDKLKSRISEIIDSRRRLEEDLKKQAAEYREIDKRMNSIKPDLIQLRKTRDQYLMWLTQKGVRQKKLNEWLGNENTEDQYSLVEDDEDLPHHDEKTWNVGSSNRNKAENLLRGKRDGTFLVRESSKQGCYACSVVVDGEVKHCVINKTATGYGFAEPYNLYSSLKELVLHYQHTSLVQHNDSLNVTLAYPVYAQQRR

For `CC1(C)C=CC2=C(O1)C(=O)c1ccccc1C2=O` [DAL, dehydro-alpha-lapachone], which “effect on kinase PAK1” value (PAK1) is on record?
The value was “no significant effects”.

And the “effect on kinase PKC delta” value (PKC delta)?
The value was “no significant effects”.

And the “effect on kinase AKT3” value (AKT3)?
The value was “no significant effects”.

And the “effect on kinase PI3K-beta” value (PI3K-beta)?
Its value is “no significant effects”.

What about the “effect on kinase AKT2” value (AKT2) of the same compound?
The value was “no significant effects”.

And the “effect on kinase PI3K-delta” value (PI3K-delta)?
The value was “no significant effects”.

And the “effect on kinase PI3K-alpha” value (PI3K-alpha)?
Its value is “no significant effects”.

What about the “effect on kinase EPHB2” value (EPHB2) of the same compound?
The value was “no significant effects”.

What about the “effect on kinase PKA” value (PKA) of the same compound?
The value was “no significant effects”.

And the “effect on kinase PKC alpha” value (PKC alpha)?
Its value is “no significant effects”.

And the “effect on kinase PI3K-gamma” value (PI3K-gamma)?
Its value is “no significant effects”.

And the “effect on kinase AKT1” value (AKT1)?
Its value is “no significant effects”.

What about the “effect on kinase p38 alpha” value (p38 alpha) of the same compound?
The value was “no significant effects”.

What about the “effect on kinase EPHB4” value (EPHB4) of the same compound?
The value was “no significant effects”.

What about the “mode of IDO inhibition with respect to L-tryptophan” value (recombinant purified IDO) of the same compound?
Its value is “non-competitive”.

What about the “total tumor vascular length (normalized to tumor volume)” value ([1]; day 2 and day 4, versus saline) of the same compound?
Its value is “lower”.

And the “tumor vascular volume fraction” value ([1]; day 4, versus saline)?
Its value is “decreases; also recorded: lower”.

And the “mean tumor vascular diameter” value ([1]; versus saline)?
The value was “remains the same; also recorded: no significant difference”.

And the “effects on the vasculature in adult fish” value [2]?
Its value is “did not show any effects”.

And the “wound healing / cell motility” value (HUVEC)?
The value was “did not move and failed to close the wound; also recorded: slowed healing”.

— patent publication US20140161720A1, “TREATMENT OF ANGIOGENIC- OR VASCULAR-ASSOCIATED DISEASES” (THE GENERAL HOSPITAL CORPORATION, priority 2011, published 2014)
